Data published in ChEMBL document CHEMBL1165891, “Synthesis and evaluation of novel chromone analogs for their inhibitory activity against interleukin-5” (Eur J Med Chem, 2010).

Experiments:
[1] = Antiinflammatory activity against mouse Y16 cells assessed as inhibition of IL5 production; type: functional, cell-based
[2] = Antiinflammatory activity against mouse Y16 cells assessed as inhibition of IL5 production at 30 uM; type: functional
[3] = Antiinflammatory activity against mouse Y16 cells assessed as inhibition of IL5 production at 50 uM; type: functional

| SMILES | IC50 [1] [µM] | inhibition at 30 µM [2] [%] | inhibition at 50 µM [3] [%] |
| --- | --- | --- | --- |
| O=c1c(Cc2ccccc2)coc2cccc(OCC3CCCCC3)c12 | 22.9 | 56 | – |
| O=c1c(Cc2ccc(O)cc2)coc2cccc(OCC3CCCCC3)c12 | < 3 | 98 | – |
| O=c1c(Cc2ccc(Cl)cc2)coc2cccc(OCC3CCCCC3)c12 | > 30 | 36 | – |
| O=C(O)c1coc2cccc(OCC3CCCCC3)c2c1=O | > 30 | 43 | – |
| CC(C)COc1cccc2occ(CCC(=O)O)c(=O)c12 | > 30 | < 10 | – |
| O=c1c(/C=N/O)coc2cccc(OCC3CCCCC3)c12 | > 30 | < 10 | – |
| O=c1c(CCl)coc2cccc(OCC3CCCCC3)c12 | > 30 | 45 | – |
| CC(C)COc1cccc2occ(CCl)c(=O)c12 | > 30 | 43 | – |
| CC(C)COc1cccc2occ(C(=O)O)c(=O)c12 | > 30 | 33 | – |
| O=C(O)CCc1coc2cccc(OCC3CCCCC3)c2c1=O | > 30 | < 10 | – |
| CC(C)CCOc1cccc2occ(Cc3ccc(O)cc3)c(=O)c12 | > 30 | 36 | – |
| COc1cc(Cc2coc3cccc(OCC4CCCCC4)c3c2=O)cc(OC)c1OC | 12.5 | 85 | – |

Second part, led by results:

| IC50 [1] [µM] | SMILES | inhibition at 30 µM [2] [%] | inhibition at 50 µM [3] [%] |
| --- | --- | --- | --- |
| 7.6 | O=c1c(CO)coc2cccc(OCC3CCCCC3)c12 | 84 | – |
| 21.6 | CC(C)COc1cccc2occ(CO)c(=O)c12 | 56 | – |
| > 30 | CCc1ccc(Cc2coc3cccc(OCC4CCCCC4)c3c2=O)cc1 | 45 | – |
| > 30 | O=c1c(Cc2ccc(C(F)(F)F)cc2)coc2cccc(OCC3CCCCC3)c12 | 47 | – |
| > 30 | Cc1ccc(Cc2coc3cccc(OCCC(C)C)c3c2=O)cc1 | 35 | – |
| > 30 | NS(=O)(=O)c1ccc(Cc2coc3cccc(OCC4CCCCC4)c3c2=O)cc1 | 31 | – |
| 12.3 | O=C(O)c1ccc(Cc2coc3cccc(OCC4CCCCC4)c3c2=O)cc1 | 77 | – |
| 14.8 | Cc1ccc(Cc2coc3cccc(OCC4CCCCC4)c3c2=O)cc1 | 86 | – |
| 11.4 | CC(C)COc1cccc2occ(Cc3ccc(C(=O)O)cc3)c(=O)c12 | 73 | – |
| > 30 | CC(C)COc1cccc2occ(/C=N/O)c(=O)c12 | < 10 | – |
| 10.3 | O=c1c(-c2ccc(O[C@@H]3O[C@H](CO)[C@@H](O)[C@H](O)[C@H]3O)cc2)coc2cc(O)cc(O)c12 [SOPHORICOSIDE] | – | 93.8 |
